Source: patent US20050288213A1, “Combination therapy for the treatment of obesity” (priority 2002, published 2005)
“Also recorded” adds a separate entry of the source.

Assays:
[1] = test system: diet induced obese (DIO) mice; experiment: In vivo pair-feeding study with a NPY5 antagonist; design: species or system Male C57BL/6J mice
Description: Compound A, is an orally active, selective NPY5 antagonist (Kanatani et al., 2000, Biochem. Biophys. Research Comm. 272:169-173). Male C57BL/6J mice (CLEA Japan Inc., 16 months old at the beginning of the drug administration) were used. Mice were given water and regular pellet chow (CE-2, CLEA Japan Inc.) ad libitum. They were kept in an animal room which was maintained at 23±2° C. temperature, 55±15% relative humidity and on a 12-hr light-dark cycle (7:00-19:00) during a quarantine and acclimatization period of 1 week.
Before the start of drug administration, mice were fed a MB diet (Oriental BioService Co., Tokyo, Japan) for about 9 to 10 months until the body weight gain reached plateau. After the body weight gain reached a plateau, the diet was change to a powder MHF diet. The powder MEW diet was given by powder feeder (small dishes). Diet and dishes were changed everyday, and daily food intake was measured. During this period, animals were orally administered vehicle (0.5% methylcellulose in distilled water) by gavage once-daily. After stable feeding was observed, the amount of new food was adjusted to daily food intake+0.3 g, to minimize the amount of spilled food. After the acclimation period, the MB diet-fed mice were divided into three groups to match average values of body weight (initial average body weight was 48 to 49 g). Each group was orally administered either vehicle or compound A at a dose of 100 mg/kg once-daily for 1 month, or vehicle by gavage. Food and body weight were measured. The administration was done one and half hours before the beginning of the dark period following the body weight measurement. Four days after drug administration, the pair-feeding was started. The pair-fed amount of food was calculated from the following equations: Average F.I. inhibition of drug treated group (%)=(average F.I. from control group−average F.I. from drug treated group)/average F.I. from control group×100 Pair fed amount of food for each animal=each animal's average F.I. from pre period×(1−average F.I. inhibition of drug treated group (%)) Pair fed mice were given a diet calculated from above inhibition and pre-average F.I. value. The amount of food was divided to two meals and given around at 8:00 and 18:00 to avoid a long duration of fasting. Rectal temperature was measured at 13:00-14:00 by insertion of thermo-probe in the rectum, at the 14, 22, 29, 34th day (10, 18, 25, 30th day for pair-fed group) after the start of treatment. Results

[2] = test system: diet induced obese (DIO) mice; experiment: In vivo study of a combination of a NPY5 antagonist and food restriction; design: species or system Male C57BL/6J mice
Description: Male C57BL/6J mice (CLEA Japan Inc., 14 months old at the beginning of the drug administration) were used. Mice were given water and a regular pellet chow (CE-2, CLEA Japan Inc.) ad libitum. They were kept in an animal room which was maintained at 23±2° C. temperature, 55±15% relative humidity and on a 12-hr light-dark cycle (7:00-19:00) during a quarantine and acclimatization period of 1 week. Before the start of drug administration, mice were fed a MHF diet (Oriental BioService Co., Tokyo, Japan) for about 9 to 10 months until the body weight gain reached a plateau. After the body weight gain reached a plateau, the diet was changed to a powder MHF diet. The powder MHF diet was given by powder feeder (small dishes). Diet and dishes were changed everyday, and the daily food intake was measured. During this period, animals were orally administered vehicle (0.5% methylcellulose in distilled water) by gavage twice-daily. After stable feeding was observed, the amount of new food was adjusted to daily food intake+0.3 g, to minimize the amount of spilled food. After the acclimation period, the […] mice were divided into four groups to match the average values of body weight (initial average body weight was 49 to 51 g) and food intake (n=7-10). Two of the groups were orally administered either vehicle or compound B at a dose of 30 mg/kg twice-daily for 1.5 months by gavage, respectively. Another two groups were treated with vehicle or compound B and given 90% of the average baseline food intake of the each mouse during the acclimation period (10% food restriction). The administration was done one and half hours before the beginning of the dark period following body weight measurement and one and half hours after the beginning of the light period. The amount of food was divided into two meals and given around at 8:00 and 18:00 to avoid a long duration of fasting. Food and body weight were measured.

In the case of `CC1(C)CC(=O)C(C2C3=C(CC(C)(C)CC3=O)Oc3ccccc32)C(=O)C1` (stereo not drawn) [Compound A], the “food consumed, less than untreated controls” value ([1]; DIO mice chronically treated) is reported as “about 10%”, the body weight ([1]; DIO mice, 100 mg/kg once-daily P.O., 30 day treatment) is reported as “significantly reduced body weight” and the food intake ([1]; DIO mice, 100 mg/kg once-daily P.O., throughout the treatment period) is reported as “mildly reduced food intake”. The rectal temperature ([1]; DIO mice, 100 mg/kg once-daily P.O., compared with control and pair-fed group, 100 mg/kg) was “almost the same as that in the control group; also recorded: drop in body temperature was prevented” and the inhibition at 100 mg/kg ([1]; Mus musculus, po, DIO mice, 100 mg/kg once-daily P.O., 1 month, read-out: Inhibitory percentage of cumulative food intake) was 12.5%.
For `O=C1OC2(CCN(C(=O)Nc3cnc(-c4ccccc4)cn3)CC2)c2ccccc21` [Compound B, 3-oxo-N-(5-phenyl-2-pyrazinyl)-spiro[isobenzofuran-1(3H),4′-piperidine]-1′-carboxamide], the “body weight, combination with 10% food restriction” value ([2]; 30 mg/kg twice-daily P.O. plus 10% food restriction, compared with either treatment alone, 30 mg/kg) was “decreased weight than either treatment alone; also recorded: lose more weight than food restriction alone”, the food intake ([2]; 30 mg/kg twice-daily P.O., throughout the treatment period) was “mildly reduced food intake” and the inhibition at 30 mg/kg ([2]; Mus musculus, po, 30 mg/kg twice-daily P.O., 1.5 months, read-out: Inhibitory percentage of cumulative food intake) was 6%. The body weight ([2]; non food restricted, 30 mg/kg twice-daily P.O., 49 day treatment) was “significantly reduced body weight”.
